Source: patent publication EP1283044A2, “Injectable ready-to-use solutions containing an antitumor anthracycline glycoside” (Pharmacia Italia S.p.A., priority 1986, dated 1988)
Counter-ions that a name gives are not always drawn.

How the values were obtained:
[1] = Shelf-life (t90%) forecast, Arrhenius approach, doxorubicin.HCl 2 mg/ml pH 3.0 in 5% dextrose; format: physicochemical; conditions: 2 mg/ml pH 3.0 solution in 5% dextrose; for t90%: calculated shelf-life; for Kobs x 10^3: observed
Description: The solution was filtered through a 0.22 µm microporous membrane under nitrogen pressure. 5.0 ml aliquots were stored at: • (a) 60°C for 8 days, • (b) 55°C for 28 days, • (c) 45°C for 28 days, and • (d) 35°C for 28 days in glass vials of glass type I, 8ml top capacity vial, Teflon-faced chlorobutyl rubber bung, aluminium seal.
(§1) The Arrhenius equation for the degradation process was calculated from the Kobs obtained from the different temperatures taken in account for the testing (Table 30). Applying the equation, the rate constants for the pseudo-first order reactions at 4°C, 8°C, 15°C and 27°C were calculated, together with the expected shelf-life (t90%) at these temperatures.

[2] = Shelf-life (t90%) forecast, Arrhenius approach, doxorubicin.HCl 2 mg/ml sterile water solution pH 3.0; format: physicochemical; conditions: for K x 10^3: 2 mg/ml sterile water solution pH 3.0, calculated from Arrhenius equation; for t90%: 2 mg/ml sterile water solution pH 3.0, calculated shelf-life; for Kobs x 10^3: 2 mg/ml sterile water solution pH 3.0, observed
Description: (§2) The solution was filtered through a 0.22 µm microporous membrane under nitrogen pressure. 5.0 ml aliquots were stored at: • (a) 55°C for 21 days, • (b) 45°C and 35°C for 28 days, and • (c) 27°C for 90 days. in glass vials of glass type I, 8ml top capacity vial, Teflon-faced chlorobutyl rubber bung, aluminium seal. At predetermined times the vials were analysed for doxorubicin.HCl assay and pH.
as §1, with “8).” for “30).”, “(t90%)at” for “(t90%) at”

[3] = Shelf-life (t90%) forecast, Arrhenius approach, doxorubicin.HCl 2 mg/ml pH 3.0 in 0.9% sodium chloride; format: physicochemical; conditions: 2 mg/ml pH 3.0 solution in 0.9% NaCl; for K x 10^3: calculated from Arrhenius equation; for t90%: calculated shelf-life; for Kobs x 10^3: observed
Description: as §2, with “(a) 60°C for 4 days, • (b)” for “(a)”, “55°C for 11 days, • (c) 45°C” for “55°C”, “days, and” for “days,”, “(d)” for “(b) 45°C and”, “days” for “days, and • (c) 27°C for 90 days.”
as §1, with “28).” for “30).”

[4] = Long term stability of doxorubicin.HCl 2 mg/ml solution in 0.9% sodium chloride at pH 3.7; conditions: batch TF/23256, 0.9% sodium chloride
[5] = pH-stability profile at 55°C of epirubicin.HCl 2 mg/ml solutions in Water for Injection, 0.9% saline or 5% dextrose: HPLC assay, pH, Kobs; format: physicochemical
Description: Each solution was filtered through a 0.22 µm microporous membrane under nitrogen pressure. 5.0 ml of each solution were stored at 55°C in glass vials of glass type I, 8ml top capacity vial, Teflon (Trade Mark)-faced chlorobutyl rubber bung, aluminium seal.
The doxorubicin.HCl assays are the mean of three independent determinations performed by the US Pharmacopoeia (USP high performance liquid chromatography (HPLC) method (USP XXI)).
Solutions of epirubicin were prepared in the same fashion as the corresponding doxorubicin solutions hereinbefore. They were then tested for stability in the same way. The results are presented in Tables 32 to 61 below and illustrated in Figures 4 to 6.

COc1cccc2c1C(=O)c1c(O)c3c(c(O)c1C2=O)C[C@@](O)(C(=O)CO)C[C@@H]3O[C@H]1C[C@H](N)[C@H](O)[C@H](C)O1 [Doxorubicin·HCl, doxorubicin]
t90% ([1]; 4°C): 3,218 days
t90% ([1]; 8°C): 1,628 days
t90% ([1]; 15°C): 516 days
t90% ([1]; 27°C): 82 days
Kobs x 10^3 ([1]; 35°C): 4.190 1/days
Kobs x 10^3 ([1]; 45°C): 14.55 1/days
Kobs x 10^3 ([1]; 55°C): 58.11 1/days
Kobs x 10^3 ([1]; 60°C): 102.6 1/days
K x 10^3 ([2]; 4°C): 0.019 1/days
K x 10^3 ([2]; 8°C): 0.038 1/days
K x 10^3 ([2]; 15°C): 0.130 1/days
K x 10^3 ([2]; 27°C): 0.918 1/days
t90% ([2]; 4°C): 5,652 days
t90% ([2]; 8°C): 2,745 days
t90% ([2]; 15°C): 810 days
t90% ([2]; 27°C): 115 days
Kobs x 10^3 ([2]; 27°C): 0.850 1/days
Kobs x 10^3 ([2]; 35°C): 3.506 1/days
Kobs x 10^3 ([2]; 45°C): 12.790 1/days
Kobs x 10^3 ([2]; 55°C): 49.340 1/days
K x 10^3 ([3]; 4°C): 0.017 1/days
K x 10^3 ([3]; 8°C): 0.037 1/days
K x 10^3 ([3]; 15°C): 0.137 1/days
K x 10^3 ([3]; 27°C): 1.112 1/days
t90% ([3]; 4°C): 6,166 days
t90% ([3]; 8°C): 2,838 days
t90% ([3]; 15°C): 768 days
t90% ([3]; 27°C): 94 days
Kobs x 10^3 ([3]; 35°C): 3.89 1/days
Kobs x 10^3 ([3]; 45°C): 21.61 1/days
Kobs x 10^3 ([3]; 55°C): 75.90 1/days
Kobs x 10^3 ([3]; 60°C): 164.9 1/days
% stability ([4]; pH 3.7, 8°C, 0 months): 100.0%
Doxorubicin.HCl assay ([4]; pH 3.7, 8°C, 0 months): 2.064 mg/mL
pH ([4]; pH 3.7, 8°C, 0 months): 3.7
% stability ([4]; pH 3.7, 8°C, 1 month): 99.3%
Doxorubicin.HCl assay ([4]; pH 3.7, 8°C, 1 month): 2.054 mg/mL
pH ([4]; pH 3.7, 8°C, 1 month): 3.7
% stability ([4]; pH 3.7, 8°C, 3 months): 100.0%
Doxorubicin.HCl assay ([4]; pH 3.7, 8°C, 3 months): 2.063 mg/mL
pH ([4]; pH 3.7, 8°C, 3 months): 3.6
% stability ([4]; pH 3.7, 15°C, 0 months): 100.0%
Doxorubicin.HCl assay ([4]; pH 3.7, 15°C, 0 months): 2.064 mg/mL
pH ([4]; pH 3.7, 15°C, 0 months): 3.7
% stability ([4]; pH 3.7, 15°C, 1 month): 100.5%
Doxorubicin.HCl assay ([4]; pH 3.7, 15°C, 1 month): 2.073 mg/mL
pH ([4]; pH 3.7, 15°C, 1 month): 3.7
% stability ([4]; pH 3.7, 15°C, 3 months): 98.4%
Doxorubicin.HCl assay ([4]; pH 3.7, 15°C, 3 months): 2.029 mg/mL
pH ([4]; pH 3.7, 15°C, 3 months): 3.6
% stability ([4]; pH 3.7, 27°C, 0 months): 100.0%
Doxorubicin.HCl assay ([4]; pH 3.7, 27°C, 0 months): 2.064 mg/mL
pH ([4]; pH 3.7, 27°C, 0 months): 3.7
% stability ([4]; pH 3.7, 27°C, 1 month): 91.5%
Doxorubicin.HCl assay ([4]; pH 3.7, 27°C, 1 month): 1.888 mg/mL
pH ([4]; pH 3.7, 27°C, 1 month): 3.6
% stability ([4]; pH 3.7, 27°C, 3 months): 74.9%
pH ([4]; pH 3.7, 27°C, 3 months): 3.3

COc1cccc2c1C(=O)c1c(O)c3c(c(O)c1C2=O)C[C@@](O)(C(=O)CO)C[C@@H]3O[C@H]1C[C@H](N)[C@@H](O)[C@H](C)O1 [epirubicin.HCl, 4'-epi-doxorubicin]
Kobs x 10^3 ([5]; 2 mg/ml in 0.9% Sodium Chloride Injection, Acetate (I = 0.05) pH 4.0, 55°C): 124.8 1/days
Kobs x 10^3 ([5]; 2 mg/ml in 0.9% Sodium Chloride Injection, Acetate (I= 0.05) pH 5.0, 55°C): 318.1 1/days
Kobs x 10^3 ([5]; 2 mg/ml in 0.9% Sodium Chloride Injection, Formate (I = 0.05) pH 3.5, 55°C): 124.5 1/days
Kobs x 10^3 ([5]; 2 mg/ml in 0.9% Sodium Chloride Injection, Glycine-HCl (I = 0.05) pH 2.0, 55°C): 168.9 1/days
Kobs x 10^3 ([5]; 2 mg/ml in 0.9% Sodium Chloride Injection, Glycine-HCl (I = 0.05) pH 2.5, 55°C): 97.3 1/days
Kobs x 10^3 ([5]; 2 mg/ml in 0.9% Sodium Chloride Injection, Glycine-HCl (I = 0.05) pH 3.0, 55°C): 84.8 1/days
Kobs x 10^3 ([5]; 2 mg/ml in 0.9% Sodium Chloride Injection, HCl-KCl (I = 0.05) pH 1.5, 55°C): 343.2 1/days
Kobs x 10^3 ([5]; 2 mg/ml in 5% Dextrose solution, Acetate (I = 0.05) pH 4.0, 55°C): 150.6 1/days
Kobs x 10^3 ([5]; 2 mg/ml in 5% Dextrose solution, Acetate (I = 0.05) pH 5.0, 55°C): 225.7 1/days
Kobs x 10^3 ([5]; 2 mg/ml in 5% Dextrose solution, Formate (I = 0.05) pH 3.5, 55°C): 89.1 1/days
Kobs x 10^3 ([5]; 2 mg/ml in 5% Dextrose solution, Glycine-HCl (I = 0.05) pH 2.0, 55°C): 106.9 1/days
Kobs x 10^3 ([5]; 2 mg/ml in 5% Dextrose solution, Glycine-HCl (I = 0.05) pH 2.5, 55°C): 81.1 1/days
Kobs x 10^3 ([5]; 2 mg/ml in 5% Dextrose solution, Glycine-HCl (I = 0.05) pH 3.0, 55°C): 70.9 1/days
Kobs x 10^3 ([5]; 2 mg/ml in 5% Dextrose solution, HCl-KCl (I = 0.05) pH 1.5, 55°C): 288.1 1/days
Kobs x 10^3 ([5]; 2 mg/ml in Water for Injection, Acetate (I = 0.05) pH 4.0, 55°C): 376.7 1/days
Kobs x 10^3 ([5]; 2 mg/ml in Water for Injection, Acetate (I = 0.05) pH 5.0, 55°C): 430.4 1/days
Kobs x 10^3 ([5]; 2 mg/ml in Water for Injection, Fermate (I = 0.05) pH 3.5, 55°C): 125.4 1/days
Kobs x 10^3 ([5]; 2 mg/ml in Water for Injection, Glycine-HCl (I = 0.05) pH 2.0, 55°C): 79.0 1/days
Kobs x 10^3 ([5]; 2 mg/ml in Water for Injection, Glycine-HCl (I = 0.05) pH 2.5, 55°C): 55.1 1/days
Kobs x 10^3 ([5]; 2 mg/ml in Water for Injection, Glycine-HCl (I = 0.05) pH 3.0, 55°C): 66.8 1/days
